# “Also recorded” adds a separate entry of the source.
# Columns and labels:
# adenosine receptors = settings: CD73 KO mice made septic by CLP; compared with wild-type mice; cited from earlier work
# [1] = tested on: C57BL/6J mice made septic by cecal ligation and puncture (CLP); experiment: Survival after sepsis induced by cecal ligation and puncture (CLP); type: in vivo, mouse; settings: murine model of septic shock induced by cecal ligation and puncture
# Method: In this analysis, CD39 KO mice, mice administered a CD39 blocker (sodium polyoxotungstate) or mice administered an apyrase (potato apyrase) were made septic by cecal ligation and puncture (CLP) and survival after CLP was recorded for 7 days. In addition, the immune status of the mice was assessed by measuring cytokine levels from blood and peritoneal lavage fluid. […] Thus, ectonucleotidase manipulation is therapeutically useful for the treatment of septic shock.
# (§1) CD39 knockout (KO) mice and their wild-type littermates were developed according to established methods and were backcrossed 6-8 times to a C57BL/6J background (Enjyoji, et al. (1999) Nat. Med. 5(9):1010-7). Wild-type and KO littermates were used in this analysis. In some experiments, mice were treated with sodium polyoxotungstate (POM-1, Na6[H2W12O40], 3 mg/kg/h, […], prior to CLP) or apyrase from potatoes (Sigma, 5 U apyrase i.p., prior to CLP).
# (§2) Polymicrobial sepsis was induced by subjecting C57BL/6J mice to CLP in accordance with established methods (Németh, et al. (2006) supra; Gallos, et al. (2005) supra; Lee, et al. (2006) supra; Csóka, et al. (2010) supra). After the operation, all mice were resuscitated with 1 ml physiological saline injected s.c. and returned to their cages with free access to food and water.
# TNF-α = TNF-α level after CLP (ELISA); type: in vivo, mouse; settings: C57BL/6J mice, 16 hours post-CLP, vs. vehicle
# Method: as §1, §2
# (§3) Sixteen hours after the CLP operation (the following day), the mice were reanesthetized with pentobarbital (50 mg/kg i.p.), and blood and peritoneal lavage fluid were harvested. Specifically, after opening the chest of mice, blood samples were obtained aseptically by cardiac puncture using heparinized syringes. […]
# (§4) Concentrations of TNF-α and MIP-2 were determined in blood and peritoneal lavage fluid obtained 16 hours after CLP using commercially available ELISA kits (R&D Systems, Minneapolis, Minn.) according to the manufacturer's instructions.
# MIP-2 = MIP-2 level after CLP (ELISA); type: in vivo, mouse; settings: C57BL/6J mice, 16 hours post-CLP, vs. vehicle
# Method: as §1, §2, §3, §4
Compound,inflammatory cytokine levels (adenosine receptors),organ dysfunction [1],TNF-α levels (TNF-α),MIP-2 levels (MIP-2)
"CCNC(=O)[C@H]1O[C@@H](n2cnc3c(N)ncnc32)[C@H](O)[C@@H]1O [NECA, 5′-(N-ethylcarboxamido)adenosine]",completely reversed the increased cytokine levels,,,
apyrase,,prevents organ dysfunction,decreases plasma cytokine levels; also recorded: decreased the levels,decreases plasma cytokine levels; also recorded: decreased the levels
sodium polyoxotungstate [reference compound],,,increased the levels,increased the levels
